Results: patent US11001802B2, “Surface of a vessel with polystyrene, nitrogen, oxygen and a static sessile contact angle for attachment and cultivation of cells” (Nunc A/S, priority 2008, dated 2021)

Tested on: H9 human ES cells
Test: Adherence of H9 human ES cells to surface modified plates with increasing Y-27632, crystal violet (Example 12)
Format: cell-based
Description: Passage 49 H9 human ES cells previously plated to 1:30 Matrigel™ treated plasticware and grown in MEF conditioned media supplemented with 8 ng/ml of bFGF were LIBERASE treated and plated to surface modified plates in MEF conditioned media supplemented with 8 ng/ml of bFGF and not otherwise treated or supplemented with increasing concentrations of Y-27632. 24 and 48 hours after plating H9 human ES cells to surface modified plates small colonies could be observed on Surfaces 2-4 and 13, and CellBIND™, and Primaria™ (cat. no. 353846, Becton Dickinson, Franklin Lakes, N.J.) with crystal violet stain (FIGS. 24-26). Furthermore, the adherence of H9 human ES cell colonies was improved by the addition of Y-27632 and the effect was dose responsive (FIG. 25).

SMILES: C[C@@H](N)[C@H]1CC[C@H](C(=O)Nc2ccncc2)CC1 [Surface Y-27632, Y-27632]
- human ES cell attachment versus untreated (1 to 2 micromolar Y-27632): minimal improvement
- adherence of human ES cells to surface modified plates (4 to 20 micromolar Y-27632): promoted adherence
